Results taken from PubChem BioAssay (NCI).
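Results reflect a 48-hour exposure of cells in 96-well plates to compound at five concentrations. TGI is the concentration that stops growth completely.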

Tests used:
Experiment in all cases: NCI-60 cell line screen, 48 h
[1] = system: 786-0 renal
[2] = system: A549 NSCLC
[3] = system: ACHN renal
[4] = system: CAKI-1 renal
[5] = system: COLO 205 colon
[6] = system: DLD-1 colon
[7] = system: DMS 114 small cell lung
[8] = system: DMS 273 small cell lung
[9] = system: HCC-2998 colon
[10] = system: HCT-116 colon
[11] = system: HCT-15 colon
[12] = system: HL-60(TB) leukemia
[13] = system: HOP-62 NSCLC
[14] = system: HOP-92 NSCLC
[15] = system: HT29 colon
[16] = system: IGROV1 ovarian
[17] = system: K-562 leukemia
[18] = system: KM12 colon
[19] = system: KM20L2 colon
[20] = system: LOX IMVI melanoma
[21] = system: LXFL 529 NSCLC
[22] = system: M14 melanoma
[23] = system: M19-MEL melanoma
[24] = system: MALME-3M melanoma
[25] = system: MOLT-4 leukemia
[26] = system: NCI-H226 lung
[27] = system: NCI-H23 lung
[28] = system: NCI-H460 lung
[29] = system: NCI-H522 lung
[30] = system: OVCAR-3 ovarian
[31] = system: OVCAR-4 ovarian
[32] = system: OVCAR-5 ovarian
[33] = system: OVCAR-8 ovarian
[34] = system: RPMI-8226 leukemia
[35] = system: RXF 393 renal
[36] = system: SF-268 CNS
[37] = system: SF-295 CNS
[38] = system: SF-539 CNS
[39] = system: SK-MEL-28 melanoma
[40] = system: SK-MEL-5 melanoma
[41] = system: SK-OV-3 ovarian
[42] = system: SN12C renal
[43] = system: SNB-19 CNS
[44] = system: SNB-75 CNS
[45] = system: SNB-78 CNS
[46] = system: SR leukemia
[47] = system: SW-620 colon
[48] = system: TK-10 renal
[49] = system: U251 CNS
[50] = system: UACC-257 melanoma
[51] = system: UACC-62 melanoma
[52] = system: UO-31 renal
[53] = system: XF 498 CNS
[54] = system: A498 renal
[55] = system: BT-549 breast
[56] = system: CCRF-CEM leukemia
[57] = system: DU-145 prostate
[58] = system: EKVX NSCLC
[59] = system: HS 578T breast
[60] = system: MCF7 breast
[61] = system: MDA-MB-231 breast
[62] = system: MDA-MB-435
[63] = system: MDA-N
[64] = system: NCI/ADR-RES ovarian
[65] = system: PC-3 prostate
[66] = system: T-47D breast
[67] = system: SK-MEL-2 melanoma

In the case of `COc1ccc(-c2oc(C=Nc3ccccc3)c([N+](=O)[O-])c2-c2ccc(OC)c(OC)c2)cc1OC`, the TGI [1] is reported as greater than 100 µM, the TGI [2] is reported as greater than 100 µM and the TGI [3] is reported as greater than 100 µM. For the same compound, the TGI [4] was greater than 100 µM, the TGI [5] was greater than 100 µM and the TGI [6] was greater than 100 µM. It also gave a TGI [7] greater than 100 µM, a TGI [8] greater than 100 µM and a TGI [9] greater than 100 µM. It also gave a TGI [10] greater than 100 µM, a TGI [11] greater than 100 µM and a TGI [12] greater than 100 µM. The TGI [13] was greater than 100 µM, the TGI [14] was greater than 100 µM and the TGI [15] was greater than 100 µM. It also gave a TGI [16] greater than 100 µM, a TGI [17] greater than 100 µM and a TGI [18] greater than 100 µM. The TGI [19] was greater than 100 µM, the TGI [20] was greater than 100 µM and the TGI [21] was greater than 100 µM. It also gave a TGI [22] greater than 100 µM, a TGI [23] greater than 100 µM and a TGI [24] greater than 100 µM. The TGI [25] was greater than 100 µM, the TGI [26] was greater than 100 µM and the TGI [27] was greater than 100 µM. The TGI [28] was greater than 100 µM, the TGI [29] was greater than 100 µM and the TGI [30] was greater than 100 µM. The TGI [31] was greater than 100 µM, the TGI [32] was greater than 100 µM and the TGI [33] was greater than 100 µM. For the same compound, the TGI [34] was greater than 100 µM, the TGI [35] was greater than 100 µM and the TGI [36] was greater than 100 µM. For the same compound, the TGI [37] was greater than 100 µM, the TGI [38] was greater than 100 µM and the TGI [39] was greater than 100 µM. The TGI [40] was greater than 100 µM, the TGI [41] was greater than 100 µM and the TGI [42] was greater than 100 µM. For the same compound, the TGI [43] was greater than 100 µM, the TGI [44] was greater than 100 µM and the TGI [45] was greater than 100 µM. It also gave a TGI [46] greater than 100 µM, a TGI [47] greater than 100 µM and a TGI [48] greater than 100 µM. The TGI [49] was greater than 100 µM, the TGI [50] was greater than 100 µM and the TGI [51] was greater than 100 µM. For the same compound, the TGI [52] was greater than 100 µM and the TGI [53] was greater than 100 µM.
In the case of `COc1ccc(C2=Nn3c(nc4sc5c(c4c3=O)CCCC5)SC2)cc1`, the TGI [1] is reported as greater than 100 µM, the TGI [54] is reported as greater than 100 µM and the TGI [2] is reported as greater than 100 µM. It also gave a TGI [3] greater than 100 µM, a TGI [55] greater than 100 µM and a TGI [4] greater than 100 µM. For the same compound, the TGI [56] was greater than 100 µM, the TGI [5] was greater than 100 µM and the TGI [57] was greater than 100 µM. For the same compound, the TGI [58] was greater than 100 µM, the TGI [9] was greater than 100 µM and the TGI [10] was greater than 100 µM. It also gave a TGI [11] greater than 100 µM, a TGI [12] greater than 100 µM and a TGI [13] greater than 100 µM. The TGI [14] was greater than 100 µM, the TGI [59] was greater than 100 µM and the TGI [15] was greater than 100 µM. For the same compound, the TGI [16] was greater than 100 µM, the TGI [17] was greater than 100 µM and the TGI [18] was greater than 100 µM. The TGI [20] was greater than 100 µM, the TGI [24] was greater than 100 µM and the TGI [60] was greater than 100 µM. For the same compound, the TGI [61] was greater than 100 µM, the TGI [62] was greater than 100 µM and the TGI [63] was greater than 100 µM. For the same compound, the TGI [25] was greater than 100 µM, the TGI [26] was greater than 100 µM and the TGI [27] was greater than 100 µM. For the same compound, the TGI [28] was greater than 100 µM, the TGI [29] was greater than 100 µM and the TGI [64] was greater than 100 µM. It also gave a TGI [30] greater than 100 µM, a TGI [31] greater than 100 µM and a TGI [32] greater than 100 µM. It also gave a TGI [33] greater than 100 µM, a TGI [65] greater than 100 µM and a TGI [34] greater than 100 µM. For the same compound, the TGI [35] was greater than 100 µM, the TGI [36] was greater than 100 µM and the TGI [37] was greater than 100 µM. The TGI [38] was greater than 100 µM, the TGI [39] was greater than 100 µM and the TGI [40] was greater than 100 µM. It also gave a TGI [41] greater than 100 µM, a TGI [42] greater than 100 µM and a TGI [46] greater than 100 µM. The TGI [47] was greater than 100 µM, the TGI [66] was greater than 100 µM and the TGI [48] was greater than 100 µM. For the same compound, the TGI [49] was greater than 100 µM, the TGI [50] was greater than 100 µM and the TGI [51] was greater than 100 µM. For the same compound, the TGI [52] was greater than 100 µM.
`Cc1nc(-n2nc(-c3ccccc3)cc2-c2ccccc2)sc1C(/C=C\c1ccc([N+](=O)[O-])cc1)=N/NC(=S)NN` was tested, and the TGI [1] was 46 µM, the TGI [54] was greater than 100 µM and the TGI [2] was greater than 100 µM. It also gave a TGI [3] greater than 82 µM, a TGI [55] of 49.2 µM and a TGI [4] greater than 56.5 µM. It also gave a TGI [56] greater than 100 µM, a TGI [5] greater than 31.6 µM and a TGI [6] of 48.6 µM. For the same compound, the TGI [7] was greater than 100 µM, the TGI [57] was 98.9 µM and the TGI [58] was greater than 100 µM. The TGI [9] was 40.3 µM, the TGI [10] was 41 µM and the TGI [11] was 56.6 µM. It also gave a TGI [12] greater than 87.2 µM, a TGI [13] of 52.2 µM and a TGI [14] greater than 100 µM. For the same compound, the TGI [59] was greater than 100 µM, the TGI [15] was greater than 72 µM and the TGI [16] was greater than 72 µM. For the same compound, the TGI [17] was greater than 100 µM, the TGI [18] was greater than 100 µM and the TGI [19] was greater than 100 µM. For the same compound, the TGI [20] was greater than 66.5 µM, the TGI [21] was greater than 100 µM and the TGI [22] was greater than 80.1 µM. For the same compound, the TGI [23] was greater than 100 µM, the TGI [24] was greater than 100 µM and the TGI [60] was 35.1 µM. For the same compound, the TGI [62] was greater than 100 µM, the TGI [63] was 50.7 µM and the TGI [25] was greater than 100 µM. For the same compound, the TGI [26] was greater than 86.6 µM, the TGI [27] was 60.6 µM and the TGI [28] was greater than 66.7 µM. It also gave a TGI [29] of 42.3 µM, a TGI [64] of 85.3 µM and a TGI [30] greater than 70.7 µM. For the same compound, the TGI [31] was greater than 100 µM, the TGI [32] was greater than 65.4 µM and the TGI [33] was 28.6 µM. For the same compound, the TGI [65] was greater than 100 µM, the TGI [34] was greater than 100 µM and the TGI [35] was greater than 59 µM. It also gave a TGI [36] greater than 61.3 µM, a TGI [37] greater than 100 µM and a TGI [38] greater than 61.3 µM. For the same compound, the TGI [67] was 98.5 µM, the TGI [39] was greater than 100 µM and the TGI [40] was greater than 53.4 µM. The TGI [41] was greater than 100 µM, the TGI [42] was greater than 31.6 µM and the TGI [43] was greater than 80 µM. It also gave a TGI [44] greater than 100 µM, a TGI [45] greater than 100 µM and a TGI [47] greater than 100 µM. The TGI [66] was 87.7 µM, the TGI [48] was greater than 59.2 µM and the TGI [49] was greater than 100 µM. It also gave a TGI [50] greater than 67.7 µM, a TGI [51] greater than 57.7 µM and a TGI [52] greater than 58.3 µM.
